Measurements as given in the Kinase Knowledgebase extract (Sharma et al. 2016).

Tests used:
[1] = target: EGFR (human), P00533 [L858R]; assay: Enzyme Assay
[2] = target: EGFR (Human), P00533 [T790M/L858R]; assay: Enzyme Assay
[3] = target: EGFR (human), P00533 [WT]
EGFR (human), P00533 [WT], sequence (P00533 whole entry, looked up): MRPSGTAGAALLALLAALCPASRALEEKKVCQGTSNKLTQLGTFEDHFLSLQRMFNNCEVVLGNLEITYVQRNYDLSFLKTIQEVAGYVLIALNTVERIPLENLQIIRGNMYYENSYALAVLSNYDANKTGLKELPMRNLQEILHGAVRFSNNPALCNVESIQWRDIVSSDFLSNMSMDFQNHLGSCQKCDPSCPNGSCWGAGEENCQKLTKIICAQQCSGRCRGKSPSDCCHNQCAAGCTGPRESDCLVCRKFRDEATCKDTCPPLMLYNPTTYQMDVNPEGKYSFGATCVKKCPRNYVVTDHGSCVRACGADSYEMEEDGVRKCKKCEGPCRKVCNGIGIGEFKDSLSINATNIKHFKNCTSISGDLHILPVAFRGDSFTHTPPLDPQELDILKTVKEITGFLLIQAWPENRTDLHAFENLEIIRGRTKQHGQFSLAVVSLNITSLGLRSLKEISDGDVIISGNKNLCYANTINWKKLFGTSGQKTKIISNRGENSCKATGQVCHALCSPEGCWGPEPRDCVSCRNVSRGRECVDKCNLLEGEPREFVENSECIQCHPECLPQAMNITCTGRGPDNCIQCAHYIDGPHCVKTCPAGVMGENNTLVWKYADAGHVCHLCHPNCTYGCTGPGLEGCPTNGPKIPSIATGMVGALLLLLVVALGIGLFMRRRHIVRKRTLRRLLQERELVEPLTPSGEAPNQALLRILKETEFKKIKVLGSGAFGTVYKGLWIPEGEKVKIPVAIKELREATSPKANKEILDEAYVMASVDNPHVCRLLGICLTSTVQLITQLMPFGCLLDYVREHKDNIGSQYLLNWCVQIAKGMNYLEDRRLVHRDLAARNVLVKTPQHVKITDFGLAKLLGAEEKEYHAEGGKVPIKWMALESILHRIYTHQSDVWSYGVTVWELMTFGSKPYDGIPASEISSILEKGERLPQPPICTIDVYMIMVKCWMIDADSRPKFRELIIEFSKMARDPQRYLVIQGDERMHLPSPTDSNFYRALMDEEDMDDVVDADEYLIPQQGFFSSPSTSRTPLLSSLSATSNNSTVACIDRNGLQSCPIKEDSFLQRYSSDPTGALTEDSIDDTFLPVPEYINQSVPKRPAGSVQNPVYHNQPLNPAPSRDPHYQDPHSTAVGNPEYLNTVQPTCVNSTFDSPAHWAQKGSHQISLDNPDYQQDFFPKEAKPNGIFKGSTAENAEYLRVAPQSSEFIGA

EGFR (Human), P00533 [T790M/L858R], sequence (P00533 whole entry T790M/L858R, looked up): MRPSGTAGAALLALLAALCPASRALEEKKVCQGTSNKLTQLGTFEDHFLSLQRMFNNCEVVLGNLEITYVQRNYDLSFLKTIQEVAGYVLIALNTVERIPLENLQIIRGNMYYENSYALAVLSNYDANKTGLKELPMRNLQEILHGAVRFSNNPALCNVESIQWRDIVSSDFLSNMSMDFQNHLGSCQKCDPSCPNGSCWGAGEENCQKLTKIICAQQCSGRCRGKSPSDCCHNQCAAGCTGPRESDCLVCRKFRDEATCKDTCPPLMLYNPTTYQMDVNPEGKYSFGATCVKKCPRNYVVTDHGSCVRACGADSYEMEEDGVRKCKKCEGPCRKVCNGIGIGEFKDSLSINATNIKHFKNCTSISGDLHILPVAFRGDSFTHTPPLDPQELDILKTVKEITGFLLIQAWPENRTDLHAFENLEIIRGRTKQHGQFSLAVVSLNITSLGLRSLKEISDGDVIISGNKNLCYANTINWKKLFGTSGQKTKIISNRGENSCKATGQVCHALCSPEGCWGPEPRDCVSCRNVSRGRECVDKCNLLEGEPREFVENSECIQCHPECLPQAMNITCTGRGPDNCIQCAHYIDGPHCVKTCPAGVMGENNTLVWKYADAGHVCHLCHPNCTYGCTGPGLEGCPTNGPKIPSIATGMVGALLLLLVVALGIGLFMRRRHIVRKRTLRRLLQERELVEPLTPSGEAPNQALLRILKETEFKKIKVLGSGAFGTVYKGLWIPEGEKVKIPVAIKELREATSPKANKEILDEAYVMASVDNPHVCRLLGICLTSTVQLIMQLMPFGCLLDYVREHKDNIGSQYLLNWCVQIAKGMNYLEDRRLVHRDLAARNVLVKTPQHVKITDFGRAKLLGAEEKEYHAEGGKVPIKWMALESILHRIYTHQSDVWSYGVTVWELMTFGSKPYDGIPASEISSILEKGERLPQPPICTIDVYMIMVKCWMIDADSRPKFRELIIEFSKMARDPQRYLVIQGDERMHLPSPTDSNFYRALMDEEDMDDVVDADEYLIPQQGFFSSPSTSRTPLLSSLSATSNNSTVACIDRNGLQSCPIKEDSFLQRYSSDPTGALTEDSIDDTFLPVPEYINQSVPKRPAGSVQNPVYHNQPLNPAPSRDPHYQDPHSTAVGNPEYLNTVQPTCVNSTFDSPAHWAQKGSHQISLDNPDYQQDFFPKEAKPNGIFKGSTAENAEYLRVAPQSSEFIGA
EGFR (human), P00533 [L858R], sequence (P00533 whole entry L858R, looked up): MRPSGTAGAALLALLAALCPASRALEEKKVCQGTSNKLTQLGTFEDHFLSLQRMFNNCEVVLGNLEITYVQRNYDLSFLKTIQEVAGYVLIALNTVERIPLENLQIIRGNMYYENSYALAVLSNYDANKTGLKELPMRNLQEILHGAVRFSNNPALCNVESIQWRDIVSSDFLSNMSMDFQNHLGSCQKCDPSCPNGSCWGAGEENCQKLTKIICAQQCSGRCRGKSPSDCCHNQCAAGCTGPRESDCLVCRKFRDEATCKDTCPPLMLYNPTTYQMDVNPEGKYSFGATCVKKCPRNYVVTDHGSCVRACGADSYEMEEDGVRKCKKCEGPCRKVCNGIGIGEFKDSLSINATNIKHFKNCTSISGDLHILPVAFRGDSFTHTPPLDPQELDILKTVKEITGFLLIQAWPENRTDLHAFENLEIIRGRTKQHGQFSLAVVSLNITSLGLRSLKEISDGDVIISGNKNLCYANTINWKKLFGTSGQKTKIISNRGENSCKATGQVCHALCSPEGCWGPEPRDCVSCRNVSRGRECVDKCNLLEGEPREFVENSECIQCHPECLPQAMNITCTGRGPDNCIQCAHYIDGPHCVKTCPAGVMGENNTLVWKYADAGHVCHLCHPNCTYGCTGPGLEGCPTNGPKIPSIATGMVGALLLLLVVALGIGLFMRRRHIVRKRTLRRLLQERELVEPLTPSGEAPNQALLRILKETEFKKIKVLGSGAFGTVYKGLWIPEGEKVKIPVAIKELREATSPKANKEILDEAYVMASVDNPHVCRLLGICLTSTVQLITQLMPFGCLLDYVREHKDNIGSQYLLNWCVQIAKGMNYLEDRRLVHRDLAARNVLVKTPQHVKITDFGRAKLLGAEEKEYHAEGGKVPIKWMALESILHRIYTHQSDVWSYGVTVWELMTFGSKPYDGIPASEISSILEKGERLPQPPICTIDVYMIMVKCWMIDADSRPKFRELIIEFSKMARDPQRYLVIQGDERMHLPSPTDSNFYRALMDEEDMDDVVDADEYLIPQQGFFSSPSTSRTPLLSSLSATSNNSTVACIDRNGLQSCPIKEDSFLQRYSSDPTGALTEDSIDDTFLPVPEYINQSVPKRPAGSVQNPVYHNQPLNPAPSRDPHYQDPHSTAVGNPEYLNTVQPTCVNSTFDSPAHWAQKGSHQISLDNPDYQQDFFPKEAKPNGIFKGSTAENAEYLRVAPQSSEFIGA

Row | SMILES | IC50 [1] [nM] | IC50 [2] [nM] | IC50 [3] [nM]
1 | CN(C)[C@H]1CCN(Cc2ccc(C(=O)N[C@@H]3[C@H]4Oc5ccc(Oc6ccnc7c6CCC(=O)N7)cc5[C@@H]34)cc2C(F)(F)F)C1 | 0.3 | 0.3 | 
2 | Cc1cc(C(=O)N[C@@H]2[C@H]3Oc4ccc(Oc5ccnc6c5CCC(=O)N6)cc4[C@@H]23)ccc1CN1CCN(C)CC1 | 0.5 | 3.1 | 1.5
3 | O=C(C=Cc1cccc(C(F)(F)F)c1)N[C@@H]1[C@H]2Oc3ccc(Oc4ccnc5c4CCC(=O)N5)cc3[C@@H]12 | 68 | 1140 | 
4 | CN(C)[C@@H]1CCN(Cc2ccc(C(=O)N[C@@H]3[C@H]4Oc5ccc(Oc6ccnc7c6CCC(=O)N7)cc5[C@@H]34)cc2C(F)(F)F)C1 | 0.67 | 3.1 | 
5 | O=C1CCc2c(Oc3ccc4c(c3)[C@H]3[C@H](NC(=O)c5ccc(CN6CCN(CCO)CC6)c(C(F)(F)F)c5)[C@H]3O4)ccnc2N1 | 0.26 | 0.76 | 
6 | CCCCCCCCCCCC(=O)N[C@@H]1[C@H]2Oc3ccc(Oc4ccnc5c4CCC(=O)N5)cc3[C@@H]12 |  |  | 8.9
7 | CN1CCN(CCOc2ccc(C(=O)N[C@@H]3[C@H]4Oc5ccc(Oc6ccnc7c6CCC(=O)N7)cc5[C@@H]34)cc2C(F)(F)F)CC1 | 12 | 32 | 
8 | CN(C)C1CCN(Cc2ccc(C(=O)N[C@@H]3[C@H]4Oc5ccc(Oc6ccnc7c6CCC(=O)N7)cc5[C@@H]34)cc2C(F)(F)F)CC1 | 0.27 | 0.42 | 
9 | CN1CCN(Cc2ccc(C(=O)N[C@@H]3[C@H]4Oc5ccc(Oc6ccnc7c6COC(=O)N7)cc5[C@@H]34)cc2C(F)(F)F)CC1 | 0.29 | 0.49 | 
